In publication PMC6272497, “Biological Activities and Cytotoxicity of Diterpenes from Copaifera spp. Oleoresins” (Molecules, 2015):
“And” between values parts separate entries of the source, which are not always exact repeats. Equal entries are not always repeated. “Also recorded” adds a separate entry of the source.

How the values were obtained:
[1] = test system: HCT-116 (colorectal); test: Alamar Blue assay, tumoral cells HCT-116; type: cell-based; details: 72 h, 20 µmol/L
Procedure: (§1) We also investigated possible cytotoxic effects on tumor cell lines (Table 1). To characterize this activity, the compounds were tested in different tumor cell lines, among which were AGP-01 (gastric), HCT116 (colorectal), MCF07 (breast cancer), NIHOVCAR (ovary), SKAMELL-4 (melanoma), and SF-295 (human glioblastoma), each at a concentration of 20 µM.
(§2) Cytotoxicity assay. The cytotoxicity of diterpene compounds to the murine macrophage cell line J774 was determined by the Alamar Blue method as described by Nakayama et al.. Briefly, adherent cells (5 × 10^3 cells/well) were grown in 96-well tissue culture plates and exposed to substances (2.5 to 10 µg/mL) for 24, 48 and 72 h. After incubation, the Alamar Blue solution (10 μL of 0.4% Alamar Blue (resazurin) in PBS) was added and the cells were incubated for 3 h at 37 °C. Fluorescence was measured (excitation at 545 nm and emission at 595 nm) and expressed as a percentage of the cells in the control after background fluorescence was subtracted. As a positive control of cell death, doxorubicin (5 µg/mL) was used. The assays were performed in triplicate. For the assays with tumoral cells, an Alamar Blue assay was performed using the following cell lines: AGP01—gastric; HCT116—colorectal; MCF07—breast cancer; NIHOVCAR—ovary; SKAMELL4—melanoma; SF295—human glioblastoma, which were seeded in 96-well plates (0.5 × 10^4 cells per well) and incubated in a CO2 atmosphere at 5% and 37 °C. After 24 h, diterpenes at 20 µM were added to each well and incubated for 72 h. Doxorubicin (10 μM) was used as a positive control and DMSO (0.1%) as a negative control. Before the end of the incubation, 10 µL of Alamar Blue (0.02%) was added to each well. The fluorescent signal was monitored using a multiplate reader using a 530–560 nm excitation wavelength and 590 nm emission wavelength. The fluorescent signal generated from the assay was proportional to the number of live cells in the sample, according to the manufacturer.

[2] = test system: NIHOVCAR (ovary); test: Alamar Blue assay, tumoral cells NIHOVCAR; type: cell-based; details: 72 h, 20 µmol/L
Procedure: as §1, §2

[3] = test system: SF295 (human glioblastoma); test: Alamar Blue assay, tumoral cells SF295; type: cell-based; details: 72 h, 20 µmol/L
Procedure: as §1, §2

[4] = test system: MCF7 (breast cancer); test: Alamar Blue assay, tumoral cells MCF7; type: cell-based; details: 72 h, 20 µmol/L
Procedure: as §1, §2

[5] = test system: SKMELL28 (melanoma); test: Alamar Blue assay, tumoral cells SKMELL28; type: cell-based; details: 72 h, 20 µmol/L
Procedure: as §1, §2

[6] = test system: nitric oxide production in J774 macrophages stimulated with LPS; test: NO production assay (Griess) in LPS-stimulated J774 cells; type: cell-based, murine; details: Mus musculus; for IC50: J774, LPS 1 µg/mL, 24 h, read-out: inhibition of NO production IC50
Procedure: Our study evaluated the effects of diterpene compounds on the production of nitric oxide in the murine macrophage cell line J774 stimulated with LPS (Figure 2D). NO^• levels were measured by the Greiss method. […] Similar results for kaurenoic acid were observed by Choi et al. […] Figure 2 Effect of the isolated diterpenic acids on nitric oxide (NO^•) and cytokine production in lipopolysaccharide-stimulated J774 cells. (A) TNF-α, (B) IL-6 and (C) IL-10 and (D) NO^•. […] The nitrite and cytokines values are the mean ± S.D. from three independent experiments. Indomethacin was used as a standard. Statistical analysis was performed using the Holm-Sidak multiple comparison. * p < 0.05 when compared to control stimulated with LPS. (1) 3-hydroxy-copalic acid, (2) kaurenoic acid, (3) 3-acetoxy-copalic acid, (4) kolavic acid 15-methyl ester, (5) copalic acid and (6) […]. NO^• production by J774 cells was assayed by measuring the accumulation of nitrite in the culture medium using a Griess reaction. Briefly, after incubation of the cells (1 × 10^6 cells/mL) with diterpene compounds in different concentrations from 6.25 to 100 μM, cells were incubated for 24 h with LPS (1 μg/mL), at 37 °C in a 5% CO2 incubator. Nitric oxide was measured as NO2 in culture supernatant by reaction with Griess reagent. Absorbance of the reaction product was determined at 560 nm using a microplate reader (DTX 800, Beckman). Sodium nitrite was used as a standard to calculate nitrite concentrations.

[7] = test system: IL-6 production; test: IL-6 production in LPS-stimulated J774 cells (CBA); type: cell-based, murine; details: for inhibition of IL-6 production (words): LPS-stimulated J774; for inhibition at 25 µM: Mus musculus, J774, 25 µM (abstract)
Procedure: Figure 2 Effect of the isolated diterpenic acids on nitric oxide (NO^•) and cytokine production in lipopolysaccharide-stimulated J774 cells. (A) TNF-α, (B) IL-6 and (C) IL-10 and (D) NO^•. […] The nitrite and cytokines values are the mean ± S.D. from three independent experiments. Indomethacin was used as a standard. Statistical analysis was performed using the Holm-Sidak multiple comparison. * p < 0.05 when compared to control stimulated with LPS. (1) 3-hydroxy-copalic acid, (2) kaurenoic acid, (3) 3-acetoxy-copalic acid, (4) kolavic acid 15-methyl ester, (5) copalic acid and (6) hardwickiic acid.
[…] The culture supernatants were collected after 24 h of LPS stimulation. The levels of cytokines in the culture media were measured by flow cytometry (BD Cytometric Bead Array—CBA—Mouse Inflammation kit) according to the manufacturer’s instructions.

[8] = test system: IL-10 production; test: IL-10 production in LPS-stimulated J774 cells (CBA); type: cell-based, murine
Procedure: Figure 2 Effect of the isolated diterpenic acids on nitric oxide (NO^•) and cytokine production in lipopolysaccharide-stimulated J774 cells. (A) TNF-α, (B) IL-6 and (C) IL-10 and (D) NO^•. Production of NO^• was assayed in culture supernatants of macrophages stimulated with LPS (1 µg/mL) for 24 h in the presence of the four compounds (25 µg/mL to cytokines and 50 µg/mL to NO^•). The nitrite and cytokines values are the mean ± S.D. from three independent experiments. Indomethacin was used as a standard. Statistical analysis was performed using the Holm-Sidak multiple comparison. * p < 0.05 when compared to control stimulated with LPS. (1) 3-hydroxy-copalic acid, (2) kaurenoic acid, (3) 3-acetoxy-copalic acid, (4) kolavic acid 15-methyl ester, (5) copalic acid and (6) hardwickiic acid.
Macrophage cells (1 × 10^6 cells/mL) were incubated with different concentrations of diterpene compounds (12.5 to 50 μM), and then stimulated with 1 μg/mL of LPS. The culture supernatants were collected after 24 h of LPS stimulation. The levels of cytokines in the culture media were measured by flow cytometry (BD Cytometric Bead Array—CBA—Mouse Inflammation kit) according to the manufacturer’s instructions.

[9] = test system: erythrocyte; test: Hemolysis test
Procedure: The assay for the characterization of hemolytic activity aimed to evaluate the potential of diterpenes on lysis of the cell membrane.
Blood was collected in heparinized-tubes from Wistar rats, and washed three times with saline solution (NaCl 0.85% + CaCl2 10 mM) by centrifugation at 700 g for 10 min. The pellet of erythrocyte was re-suspended in saline solution for preparation of erythrocyte suspension −2% (SE). A total of 100 µL of the samples of diluted diterpenes was added to 96-well microplates in different concentrations (6.25 to 800 µM); 100 µL of SE was then added; and the samples were incubated for 60 min at 37 °C under constant agitation. The release of hemoglobin was determined after centrifugation (700 g for 10 min) by photometric analysis of the supernatant at 540 nm. Complete hemolysis was achieved using 0.2% Triton X-100 yielding the 100% control value.

[10] = test system: LOX; design: method as in doi:10.1007/s00044-013-0559-7; details: read-out: LOX inhibition IC50; cited from earlier work
[11] = test system: tyrosinase; test: Tyrosinase inhibition test; type: biochemical
Procedure: The tyrosinase inhibition test was performed at concentrations of 31.25 to 500 µM.
Figure 1 Tyrosinase and lipoxygenase activities of the isolated diterpenes from Copaifera sp. […] 1. 3-hydroxy-copalic acid, 2. kaurenoic acid, 3. 3-acetoxy-copalic acid, 4. kolavic acid15-methyl ester, 5. copalic acid, and 6. hardwickiic acid. Each value is the mean ± S.E. of three independent experiments. Statistical analysis was performed using Holm-Sidak multiple comparisons. * p < 0.05 compared with the negative control.

[12] = test system: AGP01 (gastric); test: Alamar Blue assay, tumoral cells AGP01; type: cell-based; details: 72 h, 20 µmol/L
Procedure: as §1, §2

[13] = LPS-stimulated J774, 12.5 to 50 µM

Structure (SMILES)	IC50 [6] [µM]	Viability inhibition (%) HCT-116 [1] [%]	Viability inhibition (%) NIHOVCAR [2] [%]	Viability inhibition (%) SF295 [3] [%]	Viability inhibition (%) MCF7 [4] [%]	Viability inhibition (%) SKMELL28 [5] [%]	IL-10 production (words) [8, 13]	further results
COc1ccc2c(c1)c(CC(=O)O)c(C)n2C(=O)c1ccc(Cl)cc1 [indomethacin, reference compound]	32 ± 3.5	–	–	–	–	–	–	–
COc1c(C(C)C)cc2c(c1OC)[C@@]13CCC(=O)C(C)(C)[C@@H]1[C@H](OC3=O)C2=O [taxusabietane C]	–	–	–	–	–	–	–	IC50 [10]: 69 ± 0.31 µM
O=c1cc(CO)occ1O [Kojic acid, reference compound]	–	–	–	–	–	–	–	tyrosinase inhibition (activity of standard) ([11]; 700 µM): 73.5%
C=C1CCC2C(C)(C)[C@H](O)CC[C@@]2(C)[C@@H]1CC/C(C)=C\C(=O)O (stereo partly drawn) [3-hydroxy-copalic acid, 3-Hydroxy-copalic acid]	–	4.7 ± 5.6	≤0.01	20.5 ± 5.0	≤0.01	≤0.01	promoted the induction of IL-10 independent of the dose tested	tyrosinase inhibition ([11]; 250 µM): 63.9% and 64% ± 1.5%; tyrosinase activity relative to standard kojic acid ([11]; 63.9% at 250 µM vs 73.5% at 700 µM): three times more active than the standard; tyrosinase inhibitory activity ([11]; conclusions): higher inhibitory activity; IC50 ([11]; tested at 31.25 to 500 µM): 256 µM; Viability inhibition (%) AGP01 [12]: 8.5 ± 13.1%; Viability inhibition (%) SF295 ([3]; listed as 3-HO-copalic): around 20%; IL-10 production (words) ([8]; LPS-stimulated J774, 12.5 to 50 µM, listed as 3-hydroxy-copalic): induced IL-10 production; also recorded: induced production of interleukin-10
C=C1CCC2C(C)(C)[C@H](OC(C)=O)CC[C@@]2(C)[C@@H]1CCC(C)=CC(=O)O (stereo in doubt) [3-acetoxy-copalic acid, 3-Acetoxy-copalic acid]	–	≤0.01	2.0 ± 3.5	17.7 ± 0.9	≤0.01	≤0.01	increased IL-10 production; also recorded: induced IL-10 production	Viability inhibition (%) AGP01 [12]: 13.1 ± 5.3%; Viability inhibition (%) SF295 ([3]; listed as 3-AcO-copalic): around 20%; inhibition of IL-6 production (words) [7]: inhibited the production of IL-6; inhibition at 25 µM [7]: 23.8%; IL-10 production (words) ([8]; 12.5 µM and 25 µM): induced the production of IL-10; IL-10 production (words) ([8]; 50 µM): this induction decreased
COc1c(C(C)C)cc2c(c1O)C=C1C=CC(=O)C(C)(C)C1CC2=O (stereo not drawn) [taxamairin F]	–	–	–	–	–	–	–	IC50 [10]: 73 ± 0.14 µM

More lines, main results first:

IC50 [6] [µM]	Structure (SMILES)	Viability inhibition (%) HCT-116 [1] [%]	Viability inhibition (%) NIHOVCAR [2] [%]	Viability inhibition (%) SF295 [3] [%]	Viability inhibition (%) MCF7 [4] [%]	Viability inhibition (%) SKMELL28 [5] [%]	IL-10 production (words) [8, 13]	further results
57.4 ± 0.2	C=C1CC[C@@H]2C(C)(C)CCC[C@@]2(C)[C@@H]1CC/C(C)=C/C(=O)O [copalic acid, Copalic acid]	≤0.01	≤0.01	≤0.01	≤0.01	≤0.01	increased IL-10 production; also recorded: induced IL-10 production; also recorded: induced production of interleukin-10	inhibition at 100 µM ([6]; J774, 100 µM, LPS-activated macrophages): 98.5%; inhibition of IL-6 production (words) [7]: inhibited the production of IL-6; inhibition at 25 µM [7]: 4.2%; hemolytic activity ([9]; 100 µM (abstract)): 38.4%; hemolytic activity ([9]; 100 mM (so in the source)): 38.4%
67.4 ± 1.3	C[C@@H]1CC[C@@]2(C)C(C(=O)O)=CCC[C@@H]2[C@@]1(C)CCc1ccoc1 [hardwickiic acid, Hardwickiic acid]	≤0.01	≤0.01	≤0.01	≤0.01	≤0.01	did not induce the production of IL-10	–
